Where a SMILES comes first, the peptide text is derived from it. [ ]: non-standard residue; d: D form. Ac6c = NC1(C(=O)O)CCCCC1; Nle = CCCC[C@H](N)C(=O)O; Ac5c = NC1(C(=O)O)CCCC1; Aib = CC(C)(N)C(=O)O

This is an account of results in US9074014B2 (Ipsen Pharma S.A.S., priority 2008, dated 2015).

A short description of data set [1]: Human plasma half-life assay. It counts as in vitro ADME. As to conditions: human plasma, 37° C., LC-MS; read-out: Human Plasma T½ (converted). How it is done:
(§1) B. Human and Rat Plasma Half-Life Assay
(§2) 50 μL was removed at various times, like at 0, 1, 2, 3, 4, 8, 24, 32, 48, 56, 72 hours, mixed with 5 μL formic acid and 150 μL acetonitrile in a microcentrifuge tube, vertexed, and centrifuged for 10 minutes at 10K rpm. The supernatant was transferred to an injection vial and analyzed by LC-MS. The LC-MS system consisted of an API4000 mass spectrometer with an ESI probe. Positive ion mode and full scan detection were used. HPLC separation was carried out on a Luna 3μ C8 (2), 2×30 mm column with a gradient from 90% A to 90% B in 10 minutes at a flow rate of 0.3 ml/min. Buffer A was 1% formic acid in water and buffer B was 1% formic acid acetonitrile.

Data set [2] can be described thus: Rat plasma half-life assay. As to conditions: rat plasma, 37° C., LC-MS; read-out: Rat Plasma T½ (converted). It counts as in vitro ADME. On the procedure:
as §1, §2

Regarding `CC[C@H](C)[C@H](NC(=O)[C@H](CCCCN)NC(=O)[C@H](CC(=O)O)NC(=O)[C@H](CCSC)NC(=O)[C@H](C)NC(=O)C(C)(C)NC(=O)[C@H](CO)NC(=O)[C@H](Cc1ccc(O)cc1)NC(=O)[C@H](CC(=O)O)NC(=O)[C@H](CO)NC(=O)[C@@H](NC(=O)[C@H](Cc1ccccc1)NC(=O)[C@@H](NC(=O)CNC(=O)[C@H](CCC(=O)O)NC(=O)C(C)(C)NC(=O)[C@@H](N)Cc1ccc(O)cc1)[C@@H](C)O)[C@@H](C)CC)C(=O)N[C@@H](Cc1c[nH]cn1)C(=O)N[C@@H](CCC(N)=O)C(=O)N[C@@H](CCC(N)=O)C(=O)N[C@@H](CC(=O)O)C(=O)N[C@@H](Cc1ccccc1)C(=O)N[C@H](C(=O)N[C@@H](CC(N)=O)C(=O)N[C@@H](Cc1c[nH]c2ccccc12)C(=O)N[C@@H](CC(C)C)C(=O)N[C@@H](CC(C)C)C(=O)N[C@@H](C)C(=O)N[C@@H](CCC(N)=O)C(=O)N[C@@H](CCCCN)C(N)=O)C(C)C` [Example 20, (Aib^2, 12)hGIP(1-30)-NH2] (H-Y[Aib]EGTFISDYS[Aib]AMDKIHQQDFVNWLLAQK-NH2; N-terminus assumed), the half-life at 0.1 mg/ml in data set [1] is 25.4 h; in data set [2], 42 h.

Regarding `CCCC[C@H](NC(=O)[C@H](C)NC(=O)[C@@H](NC(=O)[C@H](CO)NC(=O)[C@H](Cc1ccc(O)cc1)NC(=O)[C@H](CC(=O)O)NC(=O)[C@H](CO)NC(=O)C1(NC(=O)[C@H](Cc2ccccc2)NC(=O)[C@@H](NC(=O)CNC(=O)[C@H](CCC(=O)O)NC(=O)C(C)(C)NC(=O)[C@@H](N)Cc2ccc(O)cc2)[C@@H](C)O)CCCCC1)[C@@H](C)CC)C(=O)N[C@@H](CC(=O)O)C(=O)N[C@@H](CCCCN)C(=O)N[C@H](C(=O)N[C@@H](Cc1c[nH]cn1)C(=O)N[C@@H](CCC(N)=O)C(=O)N[C@@H](CCC(N)=O)C(=O)N[C@@H](CC(=O)O)C(=O)N[C@@H](Cc1ccccc1)C(=O)N[C@H](C(=O)N[C@@H](CC(N)=O)C(=O)N[C@@H](Cc1c[nH]c2ccccc12)C(=O)N[C@@H](CC(C)C)C(=O)N[C@@H](CC(C)C)C(=O)N[C@@H](C)C(=O)N[C@@H](CCC(N)=O)C(=O)N[C@@H](CCCCN)C(N)=O)C(C)C)[C@@H](C)CC` [Example 31, (Aib^2, A6c^7, Nle^14)hGIP(1-30)-NH2] (H-Y[Aib]EGTF[Ac6c]SDYSIA[Nle]DKIHQQDFVNWLLAQK-NH2; N-terminus assumed), the half-life at 0.1 mg/ml was 36.5 h in data set [1] and 31.4 h in data set [2].

For `CCCC[C@H](NC(=O)[C@H](C)NC(=O)[C@@H](NC(=O)[C@H](CO)NC(=O)[C@H](Cc1ccc(O)cc1)NC(=O)[C@H](CC(=O)O)NC(=O)[C@H](CO)NC(=O)C1(NC(=O)[C@H](Cc2ccccc2)NC(=O)[C@@H](NC(=O)CNC(=O)[C@H](CCC(=O)O)NC(=O)C(C)(C)NC(=O)[C@@H](N)Cc2ccc(O)cc2)[C@@H](C)O)CCCC1)[C@@H](C)CC)C(=O)N[C@@H](CC(=O)O)C(=O)N[C@@H](CCCCN)C(=O)N[C@H](C(=O)N[C@@H](Cc1c[nH]cn1)C(=O)N[C@@H](CCC(N)=O)C(=O)N[C@@H](CCC(N)=O)C(=O)N[C@@H](CC(=O)O)C(=O)N[C@@H](Cc1ccccc1)C(=O)N[C@H](C(=O)N[C@@H](CC(N)=O)C(=O)N[C@@H](Cc1c[nH]c2ccccc12)C(=O)N[C@@H](CC(C)C)C(=O)N[C@@H](CC(C)C)C(=O)N[C@@H](C)C(=O)N[C@@H](CCC(N)=O)C(=O)N[C@@H](CCCCN)C(N)=O)C(C)C)[C@@H](C)CC` [Example 32, (Aib^2, A5c^7, Nle^14)hGIP(1-30)-NH2] (H-Y[Aib]EGTF[Ac5c]SDYSIA[Nle]DKIHQQDFVNWLLAQK-NH2; N-terminus assumed), the half-life at 0.1 mg/ml in data set [1] was over 48 h; in data set [2] it was 28.3 h.

For the compound `CCCC[C@H](NC(=O)[C@H](C)NC(=O)[C@@H](NC(=O)C(C)(C)NC(=O)[C@H](Cc1ccc(O)cc1)NC(=O)[C@H](CC(=O)O)NC(=O)[C@H](CO)NC(=O)[C@@H](NC(=O)[C@H](Cc1ccccc1)NC(=O)[C@@H](NC(=O)CNC(=O)[C@H](CCC(=O)O)NC(=O)C(C)(C)NC(=O)[C@@H](N)Cc1ccc(O)cc1)[C@@H](C)O)[C@@H](C)CC)[C@@H](C)CC)C(=O)N[C@@H](CC(=O)O)C(=O)N[C@@H](CCCCN)C(=O)N[C@H](C(=O)N[C@@H](Cc1c[nH]cn1)C(=O)N[C@@H](CCC(N)=O)C(=O)N[C@@H](CCC(N)=O)C(=O)N[C@@H](CC(=O)O)C(=O)N[C@@H](Cc1ccccc1)C(=O)N[C@H](C(=O)N[C@@H](CC(N)=O)C(=O)N[C@@H](Cc1c[nH]c2ccccc12)C(=O)N[C@@H](CC(C)C)C(=O)N[C@@H](CC(C)C)C(=O)N[C@@H](C)C(=O)N[C@@H](CCC(N)=O)C(=O)N[C@@H](CCCCN)C(N)=O)C(C)C)[C@@H](C)CC` [Example 33, (Aib^2, 11, Nle^14)hGIP(1-30)-NH2] (H-Y[Aib]EGTFISDY[Aib]IA[Nle]DKIHQQDFVNWLLAQK-NH2; N-terminus assumed), the half-life at 0.1 mg/ml in data set [1] was over 48 h; in data set [2], 34 h.

Take `CCCC[C@H](NC(=O)[C@H](C)NC(=O)[C@@H](NC(=O)[C@H](CO)NC(=O)[C@H](Cc1ccc(O)cc1)NC(=O)[C@H](CC(=O)O)NC(=O)[C@H](CO)NC(=O)C1(NC(=O)[C@H](Cc2ccccc2)NC(=O)[C@@H](NC(=O)CNC(=O)[C@H](CCC(=O)O)NC(=O)C2(NC(=O)[C@@H](N)Cc3ccc(O)cc3)CCCC2)[C@@H](C)O)CCCC1)[C@@H](C)CC)C(=O)N[C@@H](CC(=O)O)C(=O)N[C@@H](CCCCN)C(=O)N[C@H](C(=O)N[C@@H](Cc1c[nH]cn1)C(=O)N[C@@H](CCC(N)=O)C(=O)N[C@@H](CCC(N)=O)C(=O)N[C@@H](CC(=O)O)C(=O)N[C@@H](Cc1ccccc1)C(=O)N[C@H](C(=O)N[C@@H](CC(N)=O)C(=O)N[C@@H](Cc1c[nH]c2ccccc12)C(=O)N[C@@H](CC(C)C)C(=O)N[C@@H](CC(C)C)C(=O)N[C@@H](C)C(=O)N[C@@H](CCC(N)=O)C(=O)N[C@@H](CCCCN)C(N)=O)C(C)C)[C@@H](C)CC` [Example 34, (A5c^2,7, Nle^14)hGIP(1-30)-NH2] (H-Y[Ac5c]EGTF[Ac5c]SDYSIA[Nle]DKIHQQDFVNWLLAQK-NH2; N-terminus assumed): the half-life at 0.1 mg/ml was over 48 h in data set [1] and 23 h in data set [2].

For the compound `CC[C@H](C)[C@H](NC(=O)[C@H](CO)NC(=O)[C@H](Cc1ccc(O)cc1)NC(=O)[C@H](CC(=O)O)NC(=O)[C@H](CO)NC(=O)C1(NC(=O)[C@H](Cc2ccccc2)NC(=O)[C@@H](NC(=O)CNC(=O)[C@H](CCC(=O)O)NC(=O)C(C)(C)NC(=O)[C@@H](N)Cc2ccc(O)cc2)[C@@H](C)O)CCCC1)C(=O)N[C@@H](C)C(=O)NC1(C(=O)N[C@@H](CC(=O)O)C(=O)N[C@@H](CCCCN)C(=O)N[C@H](C(=O)N[C@@H](Cc2c[nH]cn2)C(=O)N[C@@H](CCC(N)=O)C(=O)N[C@@H](CCC(N)=O)C(=O)N[C@@H](CC(=O)O)C(=O)N[C@@H](Cc2ccccc2)C(=O)N[C@H](C(=O)N[C@@H](CC(N)=O)C(=O)N[C@@H](Cc2c[nH]c3ccccc23)C(=O)N[C@@H](CC(C)C)C(=O)N[C@@H](CC(C)C)C(=O)N[C@@H](C)C(=O)N[C@@H](CCC(N)=O)C(=O)N[C@@H](CCCCN)C(N)=O)C(C)C)[C@@H](C)CC)CCCC1` [Example 35, (Aib^2, A5c^7, 14)hGIP(1-30)-NH2] (H-Y[Aib]EGTF[Ac5c]SDYSIA[Ac5c]DKIHQQDFVNWLLAQK-NH2; N-terminus assumed), the half-life at 0.1 mg/ml in data set [1] is over 48 h; in data set [2], 39.4 h.

For `CCCC[C@H](NC(=O)[C@H](C)NC(=O)[C@@H](NC(=O)[C@H](CO)NC(=O)[C@H](Cc1ccc(O)cc1)NC(=O)[C@H](CC(=O)O)NC(=O)[C@H](CO)NC(=O)C1(NC(=O)[C@H](Cc2ccccc2)NC(=O)[C@@H](NC(=O)CNC(=O)[C@H](CCC(=O)O)NC(=O)C2(NC(=O)[C@@H](N)Cc3ccc(O)cc3)CCCCC2)[C@@H](C)O)CCCCC1)[C@@H](C)CC)C(=O)N[C@@H](CC(=O)O)C(=O)N[C@@H](CCCCN)C(=O)N[C@H](C(=O)N[C@@H](Cc1c[nH]cn1)C(=O)N[C@@H](CCC(N)=O)C(=O)N[C@@H](CCC(N)=O)C(=O)N[C@@H](CC(=O)O)C(=O)N[C@@H](Cc1ccccc1)C(=O)N[C@H](C(=O)N[C@@H](CC(N)=O)C(=O)N[C@@H](Cc1c[nH]c2ccccc12)C(=O)N[C@@H](CC(C)C)C(=O)N[C@@H](CC(C)C)C(=O)N[C@@H](C)C(=O)N[C@@H](CCC(N)=O)C(=O)N[C@@H](CCCCN)C(N)=O)C(C)C)[C@@H](C)CC` [Example 36, (A6c^2,7, Nle^14)hGIP(1-30)-NH2] (H-Y[Ac6c]EGTF[Ac6c]SDYSIA[Nle]DKIHQQDFVNWLLAQK-NH2; N-terminus assumed), the half-life at 0.1 mg/ml in data set [1] was 23.7 h; in data set [2] it was 29.2 h.

With `CC[C@H](C)[C@H](NC(=O)[C@H](CO)NC(=O)[C@H](Cc1ccc(O)cc1)NC(=O)[C@H](CC(=O)O)NC(=O)[C@H](CO)NC(=O)C1(NC(=O)[C@H](Cc2ccccc2)NC(=O)[C@@H](NC(=O)CNC(=O)[C@H](CCC(=O)O)NC(=O)C(C)(C)NC(=O)[C@@H](N)Cc2ccc(O)cc2)[C@@H](C)O)CCCCC1)C(=O)N[C@@H](C)C(=O)NC1(C(=O)N[C@@H](CC(=O)O)C(=O)N[C@@H](CCCCN)C(=O)N[C@H](C(=O)N[C@@H](Cc2c[nH]cn2)C(=O)N[C@@H](CCC(N)=O)C(=O)N[C@@H](CCC(N)=O)C(=O)N[C@@H](CC(=O)O)C(=O)N[C@@H](Cc2ccccc2)C(=O)N[C@H](C(=O)N[C@@H](CC(N)=O)C(=O)N[C@@H](Cc2c[nH]c3ccccc23)C(=O)N[C@@H](CC(C)C)C(=O)N[C@@H](CC(C)C)C(=O)N[C@@H](C)C(=O)N[C@@H](CCC(N)=O)C(=O)N[C@@H](CCCCN)C(N)=O)C(C)C)[C@@H](C)CC)CCCCC1` [Example 39, (Aib^2, A6c^7, 14)hGIP(1-30)-NH2] (H-Y[Aib]EGTF[Ac6c]SDYSIA[Ac6c]DKIHQQDFVNWLLAQK-NH2; N-terminus assumed), the half-life at 0.1 mg/ml was 42.3 h in data set [1] and 43.3 h in data set [2].
